US9206159B2, “Piperazine-piperidine compounds as hepatitis C virus inhibitors” (Theravance Biopharma R&D IP, LLC, priority 2012, dated 2015)

Assays:
[1] = tested on: HCV genotype 1a replicon cell line; assay: HCV Genotype 1a Replicon Assay; format: cell-based, hepatitis C virus; details: Huh7.5 cell background, NS3-specific protease activity in lysates, 48 or 72 hours; for EC50: Hepatitis C virus, read-out: Genotype 1a (pEC50 class) (converted)
Procedure, shortened: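 Huh7.5-based subgenomic genotype 1a replicon cells, plated without G418, exposed to compound dose-responses (0.5% DMSO final) for 48 or 72 h at 37 °C. Lysate NS3/4a protease activity read with 15 μM FRET substrate, 20 min at 37 °C (Ex 340/Em 509 nm); EC50 from 4-parameter fit.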

[2] = tested on: HCV genotype 1b replicon cell line; assay: HCV Genotype 1b Replicon Assay; format: cell-based, hepatitis C virus; details: Renilla luciferase readout, 48 hours; for Genotype 1b (pEC50 class): Huh7 cell background; for EC50: Hepatitis C virus, Huh-7, Huh7 cell background, read-out: Genotype 1b (pEC50 class) (converted)
Source text: Assay 1: HCV Genotype 1b Replicon Assay
The HCV genotype 1b replicon cell line was obtained from Apath LLC (Brooklyn, N.Y.) (APC144; Huh7 cell background). This subgenomic replicon contains the N-terminus of the HCV core protein fused to the neomycin-resistance selectable marker. The EMCV IRES lies downstream and drives expression of humanized Renilla luciferase fused to the non-structural proteins NS3-NS5B. This cell line was used to determine compound potency using the luciferase activity readout as a measurement of compound inhibition of replicon levels.
Cells were grown at 37° C. in a 5% CO2 humidified incubator in DMEM (Invitrogen) with 10% FBS (HyClone), 1×NEAA (Invitrogen), 1× Pen-Strep (Invitrogen), and 500 μg/mL G418 (Invitrogen). On day 1 of the assay, cells were plated at 10,000 cells/well in white 96-well tissue culture plates (Costar) in 200 μL media lacking G418. Four hours later, once the cells have adhered, the media was removed and replaced with media (no G418) containing dose-responses of test compounds. Compounds were initially diluted in DMSO and then diluted another 200× in media to bring the final DMSO concentration down to 0.5%. The cells were incubated with test compounds for 48 hours. At the end of the incubation period, media and compound were removed from the plates and the luciferase activity was determined using Promega Renilla-Glo reagents.
To analyze the data, the luciferase activity was plotted vs. the compound concentration, and EC50 values were determined from a 4-parameter robust fit model with the GraphPad Prism software package (GraphPad Software, Inc., San Diego, Calif.). Results are expressed as the negative decadic logarithm of the EC50 value, pEC50.
Test compounds having a higher pEC50 value in this assay show greater inhibition of HCV genotype 1b replication.

Compound: COC(=O)N[C@H](C(=O)N1C[C@@H](C)C[C@H]1c1nc(-c2ccc(-c3ccc(NC(=O)N4CCN(C5CCN(C(=O)C(C)(C)C)CC5)CC4)cc3OC(F)(F)F)cc2)c[nH]1)C(C)C [Example 2-9]
- Genotype 1a (pEC50 class) [1]: D (D represents pEC50>10 (EC50<0.1 nM))
- Genotype 1b (pEC50 class) [2]: D (D represents pEC50>10 (EC50<0.1 nM))

Compound: COC(=O)N[C@H](C(=O)N1C[C@@H](C)C[C@H]1c1nc(-c2ccc(-c3cc(F)c(NC(=O)N4CCN(C5CCN(C(=O)[C@H]6CC6(C)C)CC5)CC4)cc3OC(F)(F)F)cc2)c[nH]1)C(C)C [Example 2-16]
- Genotype 1a (pEC50 class) [1]: D (D represents pEC50>10 (EC50<0.1 nM))
- Genotype 1b (pEC50 class) [2]: D (D represents pEC50>10 (EC50<0.1 nM))

Compound: COC(=O)N[C@H](C(=O)N1C[C@@H](C)C[C@H]1c1nc(-c2ccc(-c3ccc(NC(=O)N4CCN(C5CCN(C(=O)[C@H]6CC6(C)C)CC5)CC4)cc3OC(F)(F)F)cc2)c(Cl)[nH]1)C(C)C [Example 2-17]
- Genotype 1a (pEC50 class) [1]: D (D represents pEC50>10 (EC50<0.1 nM))
- Genotype 1b (pEC50 class) [2]: D (D represents pEC50>10 (EC50<0.1 nM))

Compound: COC(=O)N[C@H](C(=O)N1C[C@@H](C)C[C@H]1c1nc(-c2ccc(-c3ccc(NC(=O)N4CCN(C5CCN(C(=O)C6CCC6)CC5)CC4)cc3OC(F)(F)F)cc2)c[nH]1)C(C)C [Example 2-19]
- Genotype 1a (pEC50 class) [1]: C (C represents pEC50 between and 9 and about 10, (EC50 between 1 nM and 0.1 nM))
- Genotype 1b (pEC50 class) [2]: D (D represents pEC50>10 (EC50<0.1 nM))

Compound: [2H]C([2H])([2H])C1(C([2H])([2H])[2H])CC1C(=O)N1CCC(N2CCN(C(=O)Nc3ccc(-c4ccc(-c5c[nH]c([C@@H]6C[C@H](C)CN6C(=O)[C@@H](NC(=O)OC)C(C)C)n5)cc4)c(OC(F)(F)F)c3)CC2)CC1 (some centres unmarked) [Example 2-20]
- Genotype 1a (pEC50 class) [1]: D (D represents pEC50>10 (EC50<0.1 nM))
- Genotype 1b (pEC50 class) [2]: D (D represents pEC50>10 (EC50<0.1 nM))

Compound: COC(=O)N[C@H](C(=O)N1C[C@@H](C)C[C@H]1c1nc(-c2ccc(-c3ccc(NC(=O)N4CCN(C5CCN(C(=O)OC(C)(C)C)CC5)CC4)cc3OC(F)(F)F)cc2)c[nH]1)C(C)C [Example 2-21]
- Genotype 1a (pEC50 class) [1]: D (D represents pEC50>10 (EC50<0.1 nM))
- Genotype 1b (pEC50 class) [2]: D (D represents pEC50>10 (EC50<0.1 nM))

Compound: COC(=O)N[C@H](C(=O)N1CCC[C@H]1c1nc(-c2ccc(-c3ccc(NC(=O)N4CCC(N5CCN(C(=O)[C@H]6CC6(C)C)CC5)CC4)cc3)cc2)c[nH]1)C(C)C [Example 3-2]
- Genotype 1a (pEC50 class) [1]: B (B represents pEC50 between 8 and 9 (EC50 between 1 and 10 nM))
- Genotype 1b (pEC50 class) [2]: D (D represents pEC50>10 (EC50<0.1 nM))

Compound: COC(=O)N[C@H](C(=O)N1C[C@@H](C)C[C@H]1c1nc2c(ccc3cc(-c4ccc(NC(=O)N5CCN(C6CCN(C(=O)[C@H]7CC7(C)C)CC6)CC5)cc4OC(F)(F)F)ccc32)[nH]1)C(C)C [Example 6-1]
- Genotype 1a (pEC50 class) [1]: D (D represents pEC50>10 (EC50<0.1 nM))
- Genotype 1b (pEC50 class) [2]: D (D represents pEC50>10 (EC50<0.1 nM))

Compound: COC(=O)N[C@H](C(=O)N1C[C@@H](C)C[C@H]1c1nc2c(ccc3cc(-c4ccc(NC(=O)N5CCN(C6CCN(C(=O)C(C)(C)CO)CC6)CC5)cc4OC(F)(F)F)ccc32)[nH]1)C(C)C [Example 6-4]
- EC50 [1]: < 0.1 nM
- EC50 [2]: < 0.1 nM

Compound: COC(=O)N[C@H](C(=O)N1C[C@@H](C)C[C@H]1c1nc(-c2ccc(-c3ccc(NC(=O)N4CCN(C5CCN(C(=O)C(C)(C)C)CC5)CC4)cc3OC(F)(F)F)cc2)c(Cl)[nH]1)C(C)C [Example 7, [(S)-1-((2S,4S)-2-{5-Chloro-4-[4′-({4-[1-(2,2-dimethyl-propionyl)-piperidin-4-yl]-piperazine-1-carbonyl}-amino)-2′-trifluoromethoxy-biphenyl-4-yl]-1H-imidazol-2-yl}-4-methyl-pyrrolidine-1-carbonyl)-2-methyl-propyl]-carbamic acid methyl ester]
- EC50 [1]: < 0.1 nM
- EC50 [2]: < 0.1 nM

Compound: COC(=O)N[C@H](C(=O)N1C[C@@H](C)C[C@H]1c1nc(-c2ccc(-c3ccc(NC(=O)N4CCC(N5CCN(C(=O)C(C)(C)CO)CC5)CC4)cc3OC(F)(F)F)cc2)c[nH]1)C1CCOCC1 [Example 9-1]
- Genotype 1a (pEC50 class) [1]: C (C represents pEC50 between and 9 and about 10, (EC50 between 1 nM and 0.1 nM))
- Genotype 1b (pEC50 class) [2]: D (D represents pEC50>10 (EC50<0.1 nM))

Compound: COC(=O)N[C@H](C(=O)N1C[C@@H](C)C[C@H]1c1nc(-c2ccc(-c3ccc(NC(=O)N4CCC(N5CCN(C(=O)C(C)(C)C)CC5)CC4)cc3OC(F)(F)F)cc2)c(F)[nH]1)C1CCOCC1 [Example 9-2]
- EC50 [1]: < 0.1 nM
- EC50 [2]: < 0.1 nM

Compound: COC(=O)N[C@H](C(=O)N1C[C@@H](C)C[C@H]1c1nc(-c2ccc(-c3ccc(NC(=O)N4CCC(N5CCN(C(=O)C(C)(C)CO)CC5)CC4)cc3OC(F)(F)F)cc2)c(F)[nH]1)C1CCOCC1 [Example 9-3]
- EC50 [1]: 0.1 to 1 nM
- EC50 [2]: < 0.1 nM

Compound: COC(=O)N[C@H](C(=O)N1C[C@@H](C)C[C@H]1c1nc(-c2ccc(-c3cc(Cl)c(NC(=O)N4CCC(N5CCN(C(=O)[C@H]6CC6(C)C)C[C@@H]5C)CC4)cc3OC(F)(F)F)cc2)c[nH]1)C(C)C [Example 11, ((S)-1-{(2S,4S)-2-[4-(5′-Chloro-4′-{[4-((S)-4-dimethylcyclopropane-carbonyl-2-methyl-piperazin-1-yl)-piperidine-1-carbonyl]-amino}-2′-trifluoromethoxy-biphenyl-4-yl)-1H-imidazol-2-yl]-4-methyl-pyrrolidine-1-carbonyl}-2-methyl-propyl)-carbamic acid methyl ester]
- EC50 [1]: < 0.1 nM
- EC50 [2]: < 0.1 nM

Compound: COC(=O)N[C@H](C(=O)N1C[C@@H](C)C[C@H]1c1nc2c(ccc3cc(-c4ccc(NC(=O)N5CCN(C6CCN(C(=O)C7CC7)CC6)CC5)cc4OC(F)(F)F)ccc32)[nH]1)C(C)C [Example 16, ((S)-1-{(2S,4S)-2-[7-(4-{[4-(1-Cyclopropanecarbonyl-piperidin-4-yl)-piperazine-1-carbonyl]-amino}-2-trifluoromethoxy-phenyl)-3H-naphth[1,2-d]imidazol-2-yl]-4-methyl-pyrrolidine-1-carbonyl}-2-methyl-propyl)-carbamic acid methyl ester]
- EC50 [1]: < 0.1 nM
- EC50 [2]: < 0.1 nM

Compound: COC(=O)N[C@H](C(=O)N1C[C@@H](C)C[C@H]1c1nc(-c2ccc(-c3ccc(NC(=O)N4CCC(N5CCN(C(=O)C(C)(C)C)CC5)CC4)cc3OC(F)(F)F)cc2)c[nH]1)C1CCOCC1 [Example 17, [(S)-2-((2S,4S)-2-{4-[4′-({4-[4-(2,2-Dimethyl-propionyl)-piperazin-1-yl]-piperidine-1-carbonyl}-amino)-2′-trifluoromethoxy-biphenyl-4-yl]-1H-imidazol-2-yl}-4-methyl-pyrrolidin-1-yl)-2-oxo-1-(tetrahydro-pyran-4-yl)-ethyl]-carbamic acid methyl ester]
- EC50 [1]: 0.1 to 1 nM
- EC50 [2]: < 0.1 nM
